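1) Cells in 96-well plates. 2) Compound, 48 h, 5 concentrations. 3) Linear interpolation between surrounding doses. 4) Unreached endpoint = highest concentration. The concentration for 50% growth inhibition is given as GI50. TGI: total growth inhibition.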
Columns and labels:
Assay in all cases: growth of human tumour cells (NCI), 48 h
[1] = tested on: M14 melanoma
[2] = tested on: HL-60(TB) leukemia
[3] = tested on: RXF 393 renal
[4] = tested on: UACC-257 melanoma
[5] = tested on: NCI-H522 lung
[6] = tested on: SK-MEL-2 melanoma
[7] = tested on: SK-MEL-5 melanoma
[8] = tested on: SNB-19 CNS
[9] = tested on: SNB-75 CNS
[10] = tested on: COLO 205 colon

| SMILES | TGI [1] [µM] | TGI [2] [µM] | TGI [3] [µM] | TGI [4] [µM] | TGI [5] [µM] | TGI [6] [µM] | TGI [7] [µM] | TGI [8] [µM] | GI50 [9] [µM] | TGI [9] [µM] | GI50 [1] [µM] | GI50 [2] [µM] | GI50 [3] [µM] | GI50 [4] [µM] | GI50 [5] [µM] | GI50 [6] [µM] | GI50 [10] [µM] | TGI [10] [µM] | GI50 [8] [µM] | GI50 [7] [µM] |
| --- | --- | --- | --- | --- | --- | --- | --- | --- | --- | --- | --- | --- | --- | --- | --- | --- | --- | --- | --- | --- |
| CCOC(=O)C(=O)Nc1ccccc1CC | > 100 | > 100 | > 100 | > 100 | > 100 | > 100 | > 100 | > 100 | – | – | – | – | – | – | – | – | – | – | – | – |
| C/C(=N\Nc1ccc(Cl)cn1)c1ccc2ccccc2n1 | 13.7 | 8.95 | > 100 | 97.3 | > 100 | > 100 | – | > 100 | 3.3 | > 100 | 2.39 | 2.18 | 2.95 | 5.33 | 3.24 | 6.67 | 2.98 | > 100 | 3.3 | – |
| COC(=O)Nc1nc2ccc(C3(c4ccc(F)cc4)OCCO3)cc2[nH]1 | – | 0.765 | 0.654 | > 100 | 2.65 | > 100 | 17.4 | > 100 | 0.262 | 98.4 | – | 0.242 | 0.211 | 1.28 | 0.222 | 0.427 | 0.297 | 2.88 | 0.483 | 0.267 |
| COc1c2c(cc3c1OCO3)[C@]13C=C[C@H](OC)C[C@H]1N(C2)CC3O (some centres not stated) | > 100 | > 100 | > 100 | > 100 | > 100 | > 100 | > 100 | > 100 | – | – | – | – | – | – | – | – | – | > 100 | – | – |
| c1ccc(C2N3CCCCC3[C@@H]3c4[nH]c5ccccc5c4CCN23)nc1 (some centres not stated) | > 100 | > 100 | > 100 | > 100 | – | > 100 | > 100 | > 100 | – | > 100 | – | – | – | – | – | – | – | – | – | – |
| CC12OC(C(=O)C13CC3)C1C(=O)c3ccc4c(ccc5ccccc54)c3C(=O)C12 (configuration not stated) | 95 | > 100 | 61.8 | > 100 | > 100 | > 100 | – | > 100 | 51.3 | > 100 | 25.2 | 33.2 | 22.5 | 33.5 | 51.3 | 53.1 | 32.2 | > 100 | 71.8 | – |
| CN(Cc1ccccc1)C(=O)c1ccccc1C(=O)O | > 100 | > 100 | > 100 | > 100 | > 100 | > 100 | – | > 100 | – | > 100 | – | – | – | – | – | – | – | > 100 | – | – |
| O=C1c2ccccc2C(=O)C1(O)c1c[nH]c2ccccc12 | > 100 | > 100 | – | > 100 | > 100 | > 100 | – | > 100 | – | > 100 | – | – | – | – | – | – | – | > 100 | – | – |
| COc1cc2ncnc(-n3ncc4cc(NC(=O)Nc5ccccc5)ccc43)c2cc1OC | 4.22 | 4.52 | 2.76 | 5.13 | – | 3.51 | 21.3 | 17.7 | 0.191 | 5.69 | 1.1 | 1.57 | 1.04 | 2.32 | – | 1.34 | 1.32 | 4.53 | 2.29 | 5.22 |
| Cc1[nH]c(=O)nc2[nH][nH]c(=O)c12 | > 100 | > 100 | > 100 | – | > 100 | > 100 | – | – | – | – | – | – | – | – | – | – | – | > 100 | – | – |
| COC(=O)C(CC(=O)Nc1ccc(C)cc1)C(=O)C(=O)Nc1c(C(C)C)cccc1C(C)C (configuration not stated) | > 100 | > 100 | > 100 | – | > 100 | > 100 | – | > 100 | – | > 100 | – | – | – | – | – | – | – | > 100 | – | – |
| COc1cc(/C=C/c2ccc(OC)c(O)c2)cc(OC)c1 | 12.8 | 4.43 | 3.88 | 24.9 | 4.49 | 29.8 | 14.4 | 24.1 | – | – | – | – | – | – | – | – | – | 59.3 | – | – |
| CCCC1=C(CC)C(C(=O)Nc2c(C)cccc2C)=NC(S)N1 (configuration not stated) | > 100 | > 100 | – | > 100 | > 100 | > 100 | > 100 | > 100 | – | > 100 | – | – | – | – | – | – | – | > 100 | – | – |
| COc1cc2[nH]c3c(c2cc1OC)CCN[C@]31CC[C@]2(CC3c4c(cc(OC)c(O)c42)CCN3C)C[C@H]1OC (some centres not stated) | 29.5 | 24.6 | 18.6 | 37.1 | – | – | 30.6 | > 100 | – | 45.5 | – | – | – | – | – | – | – | 27.3 | – | – |
| CNC(=S)/N=C(\N)N(C)C | > 100 | > 100 | > 100 | > 10 | > 100 | – | > 100 | > 100 | – | > 100 | – | – | – | – | – | – | – | > 100 | – | – |
| COc1ccc2c3c([nH]c2c1[N+](=O)[O-])C(C)N(C)CC3 (configuration not stated) | > 100 | > 100 | – | > 100 | > 100 | > 100 | > 100 | > 100 | – | > 100 | – | – | – | – | – | – | – | > 100 | – | – |
| S=c1ssc(N2CCOCC2)c1Cl | > 100 | 63.3 | > 100 | > 100 | 55.4 | > 100 | 30 | > 100 | – | – | > 100 | 24.4 | 36 | > 100 | 20.4 | > 100 | > 100 | > 100 | > 100 | 16.5 |
| COc1cc2c3c(n(CCCN)c(=O)c2cc1OC)-c1ccc(C#N)cc1C3=O | 31.6 | – | – | > 100 | > 100 | > 100 | 32.6 | 30.4 | 0.562 | 16.1 | 15.3 | – | – | 28.5 | 9.61 | 26.2 | 13.2 | 28.7 | 11.6 | 16.4 |
| COc1cc2c(cc1OCCCCC(=O)Nc1cc3c4ccccc4ccc3c3ccccc13)N=C[C@@H]1CCCN1C2=O | 33 | – | – | 18.4 | > 100 | 58.8 | 7.61 | > 61.7 | 19 | > 52.9 | 8.1 | – | – | 7.77 | 4.25 | 8.4 | 7.65 | > 100 | 11.3 | 2.93 |
